Data on one molecule can be found in patent US11573281B2, “Magnetic resonance fingerprinting method for recordings with a contrast agent” (Bayer Aktiengesellschaft, priority 2018, dated 2023).

The conditions of data set [1]: Plasma, Rohrer et al., cited from earlier work.
For data set [2] the following is noted: Blood, cited from earlier work.
For data set [3] the following is noted: Liver tissue, 0.47 T; Schuhmann-Giampieri et al.; cited from earlier work.
Data set [4] can be described thus: molar relaxivity of Gd-EOB-DTPA in urine. It counts as physicochemical.
Data set [5] is described as follows: molar relaxivity of Gd-EOB-DTPA in plasma. Type of data set: physicochemical. As to conditions: plasma vs bile.
Data set [6] can be described thus: molar relaxivity of Gd-EOB-DTPA in bile. Type of data set: physicochemical.
Data set [7] in a line: molar relaxivity of Gd-EOB-DTPA in liver tissue. The note with it: for molar relaxivity: Liver tissue. It counts as physicochemical.
Data set [8] can be described thus: molar relaxivity of Gd-EOB-DTPA in blood. It counts as physicochemical.
The conditions of data set [9]: Water, Rohrer et al., cited from earlier work.

Molecules are shown by their SMILES. Like-named read-outs stand apart in the source and are kept apart here.

Turning to `CCOc1ccc(CC(CN(CCN(CC(=O)[O-])CC(=O)[O-])CC(=O)[O-])N(CC(=O)[O-])CC(=O)[O-])cc1.[Gd+3].[Na+].[Na+]` (centres unmarked) [Gd-EOB-DTPA, gadolinium ethoxybenzyl diethylenetriaminepentaacetic acid], the molar relaxivity was 8.7^(1) (s·mmol/L)^−1 in [1] (0.47 T); 6.9^(1) (s·mmol/L)^−1 in data set [1] (1.5 T); 6.2^(1) (s·mmol/L)^−1 in data set [1] (3 T); 11.0^(2) (s·mmol/L)^−1 in [2] (0.47 T, Schuhmann-Giampieri et al.); 7.3 (s·mmol/L)^−1 in [2] (1.5 T, Rohrer et al.); 16.6^(2) (s·mmol/L)^−1 in data set [3]. For the same molecule, the molar relaxivity was 5.5 ± 0.1 (s·mmol/L)^−1 in data set [4] (1.41 T); 5.5 ± 0.2 (s·mmol/L)^−1 in data set [4] (1.5 T); 5.6 ± 0.1 (s·mmol/L)^−1 in data set [4] (3 T); 5.6 ± 0.3 (s·mmol/L)^−1 in [6] (1.41 T); 5.6 ± 0.4 (s·mmol/L)^−1 in data set [6] (1.5 T); 5.6 ± 0.3 (s·mmol/L)^−1 in [6] (3 T). Moreover, the molar relaxivity in [7] (1.41 T) is reported as 14.0 ± 2.8 (s·mmol/L)^−1; in data set [7] (1.5 T), 16.4 ± 3.1 (s·mmol/L)^−1; in data set [7] (3 T), 13.4 ± 4.0 (s·mmol/L)^−1; in [8] (1.41 T), 8.1 ± 0.2 (s·mmol/L)^−1; in [8] (1.5 T), 8.3 ± 0.3 (s·mmol/L)^−1; in [8] (3 T), 7.2 ± 0.1 (s·mmol/L)^−1. For the same molecule, the molar relaxivity was 5.3^(1) (s·mmol/L)^−1 in [9] (0.47 T), 4.7^(1) (s·mmol/L)^−1 in [9] (1.5 T) and 4.3^(1) (s·mmol/L)^−1 in data set [9] (3 T). Moreover, the “molar relaxivity in plasma compared with bile” value in data set [5] is given as “significantly higher”. In data set [7] (liver cells (hepatocytes) vs plasma), the “molar relaxivity in liver cells (hepatocytes) compared with plasma” value is on record as “significantly higher”.
